In PMC5550016, “Aminophosphinates against Helicobacter pylori ureolysis—Biochemical and whole-cell inhibition characteristics” (PLoS ONE, 2017):
Where two headings read alike, the source gives them in different places.

Key:
[1] = target: T1, urease in intact H. pylori J99 (Helicobacter pylori, UniProt P69997); experiment: Urease inhibition in whole cells of H. pylori J99; format: cell-based
T1 construct: In the intact H. pylori J99 cells, the urease susceptibility profile was similar to that of E. coli (pGEM::ureOP); endogenous in cells
T1 sequence (Q9ZMZ4 whole entry): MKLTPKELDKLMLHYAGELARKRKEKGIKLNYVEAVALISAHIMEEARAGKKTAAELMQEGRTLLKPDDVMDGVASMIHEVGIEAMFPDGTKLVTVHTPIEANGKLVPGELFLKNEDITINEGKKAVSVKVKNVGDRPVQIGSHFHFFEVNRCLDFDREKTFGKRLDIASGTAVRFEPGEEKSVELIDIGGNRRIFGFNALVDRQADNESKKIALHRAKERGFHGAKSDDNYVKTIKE
T1 sequence (P69997 whole entry): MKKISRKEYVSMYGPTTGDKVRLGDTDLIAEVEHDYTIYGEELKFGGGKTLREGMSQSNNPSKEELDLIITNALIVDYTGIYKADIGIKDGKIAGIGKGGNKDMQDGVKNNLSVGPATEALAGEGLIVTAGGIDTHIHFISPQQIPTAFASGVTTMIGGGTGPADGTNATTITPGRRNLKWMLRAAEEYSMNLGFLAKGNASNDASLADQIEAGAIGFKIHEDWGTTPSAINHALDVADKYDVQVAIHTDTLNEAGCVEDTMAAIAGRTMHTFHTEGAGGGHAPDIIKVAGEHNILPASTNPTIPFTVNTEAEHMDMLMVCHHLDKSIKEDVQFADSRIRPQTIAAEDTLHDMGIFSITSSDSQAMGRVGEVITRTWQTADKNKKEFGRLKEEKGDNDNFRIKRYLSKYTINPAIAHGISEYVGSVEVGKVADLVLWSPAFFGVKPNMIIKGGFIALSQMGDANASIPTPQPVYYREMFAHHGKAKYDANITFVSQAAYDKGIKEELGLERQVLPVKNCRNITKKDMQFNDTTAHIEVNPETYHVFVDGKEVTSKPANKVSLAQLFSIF

[2] = target: T2, purified recombinant urease from H. pylori (Helicobacter pylori, UniProt B5Z674); experiment: Inhibition of purified recombinant H. pylori urease (phenol-hypochlorite, Lineweaver-Burk); format: biochemical; conditions: 50 mM phosphate buffer pH 7.5, 37°C, 0.1–2.5 mM urea, competitive reversible inhibition
T2 construct: plasmid pGEM::ureOP, which encodes the entire urease gene cluster, was used to produce recombinant H. pylori urease; made in house; host or cells: E. coli Rosetta2 (DE3) + pGEM::ureOP
T2 sequence (B5Z674 whole entry, looked up): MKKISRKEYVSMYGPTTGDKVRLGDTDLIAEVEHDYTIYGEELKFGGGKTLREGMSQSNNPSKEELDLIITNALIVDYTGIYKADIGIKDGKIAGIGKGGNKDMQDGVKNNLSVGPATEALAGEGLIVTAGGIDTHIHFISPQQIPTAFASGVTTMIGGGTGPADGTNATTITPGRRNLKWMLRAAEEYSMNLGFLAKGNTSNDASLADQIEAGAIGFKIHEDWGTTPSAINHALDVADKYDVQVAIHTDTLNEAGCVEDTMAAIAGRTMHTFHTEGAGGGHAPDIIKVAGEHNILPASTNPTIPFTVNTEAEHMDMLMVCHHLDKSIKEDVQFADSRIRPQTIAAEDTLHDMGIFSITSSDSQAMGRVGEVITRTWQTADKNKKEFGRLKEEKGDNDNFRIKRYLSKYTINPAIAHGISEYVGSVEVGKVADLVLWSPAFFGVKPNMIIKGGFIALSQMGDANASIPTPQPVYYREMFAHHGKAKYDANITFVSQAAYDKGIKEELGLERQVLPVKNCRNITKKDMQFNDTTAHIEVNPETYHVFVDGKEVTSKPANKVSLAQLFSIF
Procedure: The kinetic parameters of urease were determined by measuring the initial rates of the reactions in 50 mM phosphate buffer (pH 7.5) at 37°C. Ammonia was routinely quantified by the phenol hypochlorite method as reported previously.
Inhibition studies were conducted by initiating the enzymatic reaction with the addition of the enzyme into assay mixtures (200 μL total volume) containing increasing concentrations of inhibitors and 0.1–2.5 mM urea. After 15 min of incubation at 37°C, the reaction was stopped by adding phenol-hypochlorite reagents and the absorbance of the formed indophenol blue complexes was measured at 650 nm. The Ki values were determined from Lineweaver-Burk plots after testing at least five inhibitor concentrations in a range that depended on their inhibitory strength. The concentration of inhibitor that caused the loss of 50% of the enzyme’s activity (IC50) was determined from the measurements that were performed at a urea concentration of 0.6 mM and calculated using the linear regression of the urease activity versus the logarithm of the inhibitor concentrations.
The values of Ki and IC50 for all analyzed compounds were calculated using the appropriate equations in GraphPad Prism 5. Errors were reported with two significant digits, and each measured parameter was given with the same number of decimal places as its error [32].

[3] = target: T3, urease in intact E. coli (pGEM::ureOP) cells (Helicobacter pylori, UniProt B5Z674); experiment: Urease inhibition in whole cells of E. coli + pGEM::ureOP; format: cell-based; conditions: IC50 exceeding 2 mM considered not active
T3 construct: plasmid pGEM::ureOP, which encodes the entire urease gene cluster, was used to produce recombinant H. pylori urease; expressed in transfected cells; host or cells: E. coli Rosetta2 (DE3) transformed with pGEM::ureOP
T3 sequence (B5Z674 whole entry, looked up): as above
Procedure: The expression strain E. coli + pGEM::ureOP was cultured in 150 mL of LB broth (Biocorp, Poland) with 100 μg/mL ampicillin (Polfa, Tarchomin, Poland) at 37°C and induced with IPTG (0.75 mM) and Ni^2+ (0.75 mM) during the exponential growth phase, which was determined by the OD600 measurements (OD600 = 0.6). Further expression was conducted for 24 h at 22°C. The bacterial culture (1 mL) was harvested via centrifugation (2 min, 20 376 x g, 37°C) and washed three times with PBS. The pellets from 1-mL samples of the expression cell culture were resuspended in 100 μL of PBS. The hydrolysis of urea that is catalyzed by whole bacterial cells was performed in 96-well plates (Rotilabo, U-profile). The reaction progress curves were obtained by the addition of bacterial cells (1×10^9 CFU/mL final concentration) into mixtures (300 μL final volume) that contained 5 mM urea and various inhibitor concentrations that depended on their inhibitory strength. Alternatively, the reaction was initiated via the addition of a concentrated solution of urea after a 120-min preincubation of bacterial cells with the inhibitor. Samples (50 μL) of the reaction mixture were removed after the appropriate reaction time. The enzymatic reactions in the samples were terminated via the introduction of 100 μL of phenol-sodium nitroprusside solution, immediately followed by the addition of 100 μL of NaOH-hypochlorite solution. The absorption of indophenol blue was measured at 650 nm using a TECAN-Sunrise absorbance reader equipped with a gradient filter and Magellan software. The IC50 values were determined from the linear regression of the urease activity versus the logarithm of the inhibitor concentration. The reaction was studied in the absence and in the presence of the inhibitor. The influence of dimethylformamide (DMF), which was used as a solvent for several compounds, was also determined.

[4] = system: immortalized murine endothelial cell line from peripheral lymph node HEC A10; experiment: Sulforhodamine B antiproliferative assay, HEC A10; format: cell-based; conditions: Mus musculus, compound 0.5 mM, 72 h, read-out: % Proliferation inhibition ± SD
Procedure: (§1) The BALB/3T3 cell line was cultured in Dulbecco MEM (Gibco, Scotland) supplemented with 10% (v/v) FBS (Sigma-Aldrich, Poznań, Poland) and 2 mM L-glutamine (Sigma-Aldrich, Poznań, Poland). The MCF-10A cell line was cultured in F-12 Nutrient mixture supplemented with 5% (v/v) horse serum (both Gibco, Scotland), 0.05 μg/mL cholera toxin, 10 μg/mL insulin, 0.5 μg/mL hydrocortisone, and 20 ng/mL EGFH (all Sigma-Aldrich, Poznań, Poland). The Eph4-Ev cell line was cultured in Dulbecco MEM supplemented with 2 mM L-glutamine, 10% (v/v) calf bovine serum (ATCC Rockville, Maryland, USA) and puromycin (Sigma-Aldrich, Poznań, Poland). The HEC A10 cell line was cultured in OPTI-MEM (IIET, Wroclaw, Poland) supplemented with 2 mM L-glutamine and 5% (v/v) FBS. All culture media were additionally supplemented with antibiotics: 100 U/mL penicillin and 100 μg/mL streptomycin (both Polfa-Tarchomin, Poland). During all experiments, cells were maintained in a humid atmosphere at 37°C and 5% CO2 and passaged twice a week using EDTA-Trypsin (pH 8; IIET, Wroclaw, Poland) solution as a detachment agent.
(§2) This assay was used as previously described with minor modifications. Briefly, 24 h before adding the tested compounds, cells were seeded in 96-well plates (Sarstedt, Germany) in appropriate culture medium with 10^5 […] (100 μL/well). Cells were treated with each compound in at least four concentrations in the range from 500–4 μM for 72 h. Next, cells were fixed with 50 μL/well of 50% (w/v) trichloroacetic acid (Avantor Performance Materials, Gliwice, Poland). After a 1-hour incubation, the plates were washed several times with tap water, and 50 μL of 0.4% (w/v) solution of sulforhodamine B (Sigma-Aldrich, Germany) in 1% (v/v) acetic acid (Avantor Performance Materials, Gliwice, Poland) was added to each well. After a 30-min incubation at room temperature, unbound dye was washed out with 1% (v/v) acetic acid, whereas bound dye was solubilized with 10 mM unbuffered TRIS (Avantor Performance Materials, Gliwice, Poland) solution. The entire procedure was performed using an EL-406 washing station (BioTek Instruments, USA). Next, absorbance at 540 nm was measured using a Synergy H4 Hybrid Reader (BioTek Instruments, USA). Compounds at each concentration were tested in triplicate in a single experiment, and each experiment was repeated three times independently. The results were calculated using the Prolab-3 system based on Cheburator 0.4 software and was presented as proliferation inhibition percentages at the highest concentration used.

[5] = system: murine mammary gland epithelium Eph4-Ev; experiment: Sulforhodamine B antiproliferative assay, Eph4-Ev; format: cell-based; conditions: Mus musculus, compound 0.5 mM, 72 h, read-out: % Proliferation inhibition ± SD
Procedure: as §1, §2

[6] = system: mouse fibroblasts BALB/3T3; experiment: Sulforhodamine B antiproliferative assay, BALB/3T3; format: cell-based; conditions: compound 0.5 mM, 72 h, read-out: % Proliferation inhibition ± SD
Procedure: as §1, §2

[7] = system: human mammary gland MCF-10A; experiment: Sulforhodamine B antiproliferative assay, MCF-10A; format: cell-based; conditions: compound 0.5 mM, 72 h, read-out: % Proliferation inhibition ± SD
Procedure: as §1, §2

[8] = cells grown with urea, 2 h of preincubation with inhibitors in PBS under microaerobic conditions, read-out: IC502h PBS
[9] = cells grown with urea, 2 h of preincubation with inhibitors in growth medium under microaerobic conditions, read-out: IC502h medium
[10] = cells grown with urea, without preincubation, read-out: IC500
[11] = cells grown without urea, 2 h of preincubation with inhibitors in PBS under microaerobic conditions, read-out: IC502h PBS
[12] = cells grown without urea, without preincubation, read-out: IC500
[13] = without preincubation of cells with inhibitory compounds, 30-min reactions, 5 mM urea
[14] = read-out: IC500, without preincubation of cells with inhibitory compounds, 30-min reactions, 5 mM urea
[15] = read-out: IC502h PBS, 2 h of preincubation with inhibitors in PBS
[16] = IC500, without preincubation of cells with inhibitory compounds, 30-min reactions, 5 mM urea
[17] = IC502h PBS, 2 h of preincubation with inhibitors in PBS

| SMILES | IC50 [1, 8] [µM] | IC50 [1, 9] [µM] | IC50 [1, 10] [µM] | IC50 [1, 11] [µM] | IC50 [1, 12] [µM] | Ki ([2]; Ki) [µM] | IC50 [3, 14] [µM] | IC50 [3, 15] [µM] | other results |
| --- | --- | --- | --- | --- | --- | --- | --- | --- | --- |
| CN(Cc1ccccc1)CP(=O)(O)CN [Compound 19] | > 2000 | > 2000 | > 2000 | > 2000 | > 2000 | 36.4 ± 4.9 | – | – | IC500 [3, 13]: complete lack of inhibitory effects |
| CCCCCCNCP(=O)(O)CO [Compound 5] | – | – | – | – | – | 74.3 ± 4.7 | – | – | – |
| CCCCCCCCNCP(=O)(O)CN [Compound 15] | 712 ± 28 | 276 ± 17 | 1010 ± 84 | 638 ± 22 | 1260 ± 53 | – | > 2000 | > 2000 | inhibition at 500 µM [4]: 0%; Ki [2]: > 2000 µM; inhibition at 500 µM [5]: 2.7 ± 1.1%; inhibition at 500 µM [6]: 0%; inhibition at 500 µM [7]: 1.8 ± 1.2% |
| CN(C)CP(=O)(O)CN(C)C [Compound 22] | > 2000 | > 2000 | > 2000 | > 2000 | > 2000 | – | > 2000 | > 2000 | – |
| CNCP(C)(=O)O [Compound 2] | 468 ± 21 | 274 ± 87 | 597.4 ± 5.2 | 852 ± 40 | 480 ± 79 | 61.6 ± 3.5 | – | – | inhibition at 500 µM [4]: 0%; inhibition at 500 µM [5]: 1.1 ± 1%; IC50 [3, 16]: 573 ± 76 µM; IC50 [3, 17]: 306 ± 48 µM; inhibition at 500 µM [6]: 1.4 ± 1.1%; inhibition at 500 µM [7]: 0% |
| NCP(=O)(O)CN1CCCCC1 [Compound 16] | > 2000 | > 2000 | > 2000 | > 2000 | > 2000 | – | > 2000 | > 2000 | – |
| CN(C)CP(=O)(O)CN [Compound 8] | – | – | – | – | – | 29.9 ± 2 | – | – | – |
| NCP(=O)(O)CNC1CCCCC1 [Compound 17] | > 2000 | > 2000 | > 2000 | > 2000 | > 2000 | – | > 2000 | > 2000 | – |
| CC(C)CNCP(=O)(O)CN [Compound 10] | 1130 ± 83 | 835 ± 34 | > 2000 | 980 ± 35 | 913 ± 63 | 440 ± 70 | > 2000 | – | IC50 [3, 17]: 1870 ± 113 µM |
| CCCCNCP(=O)(O)CN [Compound 11] | 816 ± 39 | 470 ± 38 | 733 ± 9.2 | 933 ± 206 | 881 ± 35 | 27 ± 2.1 | – | – | IC50 [3, 16]: 779 ± 99 µM; IC50 [3, 17]: 284 ± 41 µM |
| CCN(CC)CP(=O)(O)CN [Compound 20] | > 2000 | > 2000 | > 2000 | > 2000 | > 2000 | – | > 2000 | > 2000 | – |
| CC(=O)NO [Compound 24, acetohydroxamic acid, reference compound] | 1360 ± 194 | 192 ± 26 | 1670 ± 70 | 156 ± 32 | > 2000 | – | – | – | IC50 ([1]; urea-grown cells, preincubation in PBS, read-out: IC502h PBS): 1350 µM; IC50 ([1]; urea-grown cells, without former preincubation, read-out: IC500): 1660 µM; Ki ([2]; listed as acetohydroxamic acid, read-out: Ki): 23 µM; Ki ([2]; read-out: Ki): 23.2 ± 1.5 µM; IC50 ([3]; 2 h of preincubation with inhibitors in PBS, read-out: IC502h PBS): 96 ± 17 µM; IC50 ([3]; without preincubation of cells with inhibitory compounds, 30-min reactions, 5 mM urea, read-out: IC500): 153 ± 31 µM |
| CCCCCNCP(=O)(O)CN [Compound 12] | 853 ± 93 | 806 ± 72 | 813 ± 61 | 917 ± 105 | 872 ± 68 | 43.1 ± 3.6 | – | – | IC50 [3, 16]: 1670 ± 232 µM; IC50 [3, 17]: 475 ± 73 µM |
| CCCCCCCNCP(=O)(O)CN [Compound 14] | 672 ± 52 | 474 ± 34 | 942 ± 79 | 675 ± 33 | 743 ± 74 | 878 ± 25 | > 2000 | > 2000 | IC500 [3, 13]: complete lack of inhibitory effects |
| O=P(O)(CNCc1ccccc1)CNCc1ccccc1 [Compound 23] | > 2000 | > 2000 | > 2000 | > 2000 | > 2000 | 50.7 ± 4.8 | – | – | IC500 [3, 13]: complete lack of inhibitory effects |
| NCP(=O)(O)CNCc1ccccc1 [Compound 18] | > 2000 | > 2000 | > 2000 | > 2000 | > 2000 | 44.4 ± 2.5 | > 2000 | > 2000 | IC500 [3, 13]: complete lack of inhibitory effects |
